From ChEMBL document CHEMBL1123887, “Fluoro ketone containing peptides as inhibitors of human renin” (J Med Chem, 1987)
Numbered stars: 1 amine (or outer) side, 2 acyl side, 3 side chain; on linkers, the order of the positions; unused ones are H or OH. Square brackets hold non-standard residues; d marks the D form. Peptide text beside a SMILES is read from it. * marks the point of attachment. X2 = CC(C)C[C@H](N[*:1])[C@@H](O)C(F)(F)C(=O)[*:2]; X1 = CC(C)C[C@H](N[*:1])C(=O)C(F)(F)C(=O)[*:2]; X3 = CC(C)C[C@H](N[*:1])C(=O)CC(=O)[*:2]; Sta = CC(C)C[C@H](N)[C@@H](O)CC(=O)O; Boc = CC(C)(C)OC(=O)*

Target: T1, Renin (Homo sapiens, UniProt P00797)
T1 sequence (P00797 whole entry): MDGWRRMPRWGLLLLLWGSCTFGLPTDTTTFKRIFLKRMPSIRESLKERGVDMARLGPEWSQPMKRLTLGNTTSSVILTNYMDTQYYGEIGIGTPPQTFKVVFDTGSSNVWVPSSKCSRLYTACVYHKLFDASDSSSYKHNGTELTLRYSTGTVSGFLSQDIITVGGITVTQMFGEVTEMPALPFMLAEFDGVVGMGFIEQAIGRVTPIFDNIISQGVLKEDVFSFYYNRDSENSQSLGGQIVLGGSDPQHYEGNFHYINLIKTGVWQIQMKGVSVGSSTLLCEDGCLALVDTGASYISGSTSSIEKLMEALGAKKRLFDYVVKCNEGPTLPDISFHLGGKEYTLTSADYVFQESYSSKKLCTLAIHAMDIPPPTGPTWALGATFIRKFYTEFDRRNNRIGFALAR
Assay: Compound was evaluated for inhibitory activity against human kidney renin
Assay type: tissue-based

SMILES | Ki [nM]
CC(C)C[C@H](NC(=O)C(F)(F)[C@H](O)[C@H](CC(C)C)NC(=O)[C@@H](/C=C/[C@H](Cc1ccccc1)NC(=O)OC(C)(C)C)Cc1ccccc1)C(=O)N[C@@H](Cc1ccccc1)C(N)=O | 12000
COC(=O)[C@@H](/C=C/[C@H](CC(C)C)NC(=O)C(F)(F)C(=O)[C@H](CC(C)C)NC(=O)[C@H](Cc1ccccc1)NC(=O)[C@H](Cc1ccccc1)NC(=O)OC(C)(C)C)Cc1ccccc1 | 1200
COC(=O)[C@@H](/C=C/[C@H](CC(C)C)NC(=O)C(F)(F)[C@H](O)[C@H](CC(C)C)NC(=O)[C@H](Cc1ccccc1)NC(=O)[C@H](Cc1ccccc1)NC(=O)OC(C)(C)C)Cc1ccccc1 | 16000
CC(C)C[C@H](NC(=O)C[C@H](O)[C@H](CC(C)C)NC(=O)[C@H](Cc1ccccc1)NC(=O)[C@H](Cc1ccccc1)NC(=O)OC(C)(C)C)C(=O)N[C@@H](Cc1ccccc1)C(N)=O (Boc-FF[Sta]LF-NH2) | 52
CC(C)C[C@H](NC(=O)C(F)(F)C(=O)[C@H](CC(C)C)NC(=O)[C@H](Cc1ccccc1)NC(=O)[C@H](Cc1ccccc1)NC(=O)OC(C)(C)C)C(=O)N[C@@H](Cc1ccccc1)C(N)=O (Boc-FF[X1]LF-NH2) | 7
CC(C)C[C@H](NC(=O)C(F)(F)[C@H](O)[C@H](CC(C)C)NC(=O)[C@H](Cc1ccccc1)NC(=O)[C@H](Cc1ccccc1)NC(=O)OC(C)(C)C)C(=O)N[C@@H](Cc1ccccc1)C(N)=O (Boc-FF[X2]LF-NH2) | 120
CC(C)C[C@H](NC(=O)[C@H](Cc1ccccc1)NC(=O)[C@H](Cc1ccccc1)NC(=O)OC(C)(C)C)C(=O)CC(=O)N[C@@H](CC(C)C)C(=O)N[C@@H](Cc1ccccc1)C(N)=O (Boc-FF[X3]LF-NH2) | 154
